Results from PubChem BioAssay AID2060624 (Molecular Pharmacology Branch, DTP, NCI, 2025).

System: 217524-143-R1-J4-PDC spheroids with HUVEC/MSC, viability
Experiment: Anticancer human tumor 217524-143-R1-J4-PDC patient-derived pancreatic carcinoma cell line growth inhibition [CLK]
Conditions: for IC50: curve of first compound; for viability, T/C: stronger effect = lower value
In short: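 Multi-cell-type spheroids combined patient-derived tumor cells with HUVEC endothelial cells and human mesenchymal stem cells. Paired agents were dosed in half-log steps down from about clinical Cmax, or from 10 microM where Cmax was unknown.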

[1] = second compound 0.0316 µM, first compound 0.0316 µM
[2] = second compound 0.0316 µM, first compound 0.1 µM
[3] = second compound 0.0316 µM, first compound 0.316 µM
[4] = second compound 0.0316 µM, first compound 1 µM
[5] = second compound 0.0316 µM, first compound 3.16 µM
[6] = second compound 0.0316 µM, first compound 10 µM
[7] = second compound 0.1 µM, first compound 0.0316 µM
[8] = second compound 0.1 µM, first compound 0.1 µM
[9] = second compound 0.1 µM, first compound 0.316 µM
[10] = second compound 0.1 µM, first compound 1 µM
[11] = second compound 0.1 µM, first compound 3.16 µM
[12] = second compound 0.1 µM, first compound 10 µM
[13] = second compound 0.316 µM, first compound 0.0316 µM
[14] = second compound 0.316 µM, first compound 0.1 µM
[15] = second compound 0.316 µM, first compound 0.316 µM
[16] = second compound 0.316 µM, first compound 1 µM
[17] = second compound 0.316 µM, first compound 3.16 µM
[18] = second compound 0.316 µM, first compound 10 µM
[19] = second compound 1 µM, first compound 0.0316 µM
[20] = second compound 1 µM, first compound 0.1 µM
[21] = second compound 1 µM, first compound 0.316 µM
[22] = second compound 1 µM, first compound 1 µM
[23] = second compound 1 µM, first compound 3.16 µM
[24] = second compound 1 µM, first compound 10 µM
[25] = second compound 3.16 µM, first compound 0.0316 µM
[26] = second compound 3.16 µM, first compound 0.1 µM
[27] = second compound 3.16 µM, first compound 0.316 µM
[28] = second compound 3.16 µM, first compound 1 µM
[29] = second compound 3.16 µM, first compound 3.16 µM
[30] = second compound 3.16 µM, first compound 10 µM
[31] = second compound 10 µM, first compound 0.0316 µM
[32] = second compound 10 µM, first compound 0.1 µM
[33] = second compound 10 µM, first compound 0.316 µM
[34] = second compound 10 µM, first compound 1 µM
[35] = second compound 10 µM, first compound 3.16 µM
[36] = second compound 10 µM, first compound 10 µM
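Also: spheroids exposed to agents for seven days before reading.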
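For viability, T/C in this document: 100% = DMSO vehicle control viability.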

In the case of `COc1ccc([C@@H](O)c2cc(-c3ncnc4cc(N5CCOCC5)ccc34)c(F)cc2Cl)nn1` + CN1CCN(c2cc(C(=O)Nc3cc4cc(-c5cnn(C)c5)ccc4cn3)ccn2)CC1, the IC50 (second compound 0.0316 µM) is reported as 285 nM, the IC50 (second compound 0.1 µM) is reported as < 31.6 nM and the IC50 (second compound 0.316 µM) is reported as < 31.6 nM. The IC50 (second compound 1 µM) was < 31.6 nM, the IC50 (second compound 3.16 µM) was < 31.6 nM and the IC50 (second compound 10 µM) was < 31.6 nM. It also gave a viability, T/C [1] of 70.4%, a viability, T/C [2] of 59.8% and a viability, T/C [3] of 46.9%. It also gave a viability, T/C [4] of 38.5%, a viability, T/C [5] of 26.1% and a viability, T/C [6] of 10.6%. The viability, T/C [7] was 39.6%, the viability, T/C [8] was 50.7% and the viability, T/C [9] was 29.8%. The viability, T/C [10] was 24.4%, the viability, T/C [11] was 16.2% and the viability, T/C [12] was 10%. The viability, T/C [13] was 18.1%, the viability, T/C [14] was 18.4% and the viability, T/C [15] was 15%. It also gave a viability, T/C [16] of 13.4%, a viability, T/C [17] of 10.7% and a viability, T/C [18] of 6.07%. For the same compound, the viability, T/C [19] was 1.28%, the viability, T/C [20] was 0.91% and the viability, T/C [21] was 1.1%. The viability, T/C [22] was 0.93%, the viability, T/C [23] was 0.91% and the viability, T/C [24] was 0.91%. It also gave a viability, T/C [25] of 0.52%, a viability, T/C [26] of 0.54% and a viability, T/C [27] of 0.73%. For the same compound, the viability, T/C [28] was 0.44%, the viability, T/C [29] was 1.02% and the viability, T/C [30] was 1.29%. The viability, T/C [31] was 0.08%, the viability, T/C [32] was 0.12% and the viability, T/C [33] was 0.21%. It also gave a viability, T/C [34] of 0.18%, a viability, T/C [35] of 0.22% and a viability, T/C [36] of 0.36%.
With `C=C(F)C(=O)N1CCN(c2nc(OCC3CCCN3C)nc3c2CCN(c2cccc4cccc(Cl)c24)C3)CC1CC#N` (centres undefined) + CNC(=O)c1ccc(Nc2nc(OC3CCCC3)c3c(-c4ccc5nc(C)oc5c4)c[nH]c3n2)c(OC)c1 the IC50 (second compound 0.0316 µM) was 5260 nM, the IC50 (second compound 0.1 µM) was < 31.6 nM and the IC50 (second compound 0.316 µM) was < 31.6 nM. For the same compound, the IC50 (second compound 1 µM) was < 31.6 nM, the IC50 (second compound 3.16 µM) was < 31.6 nM and the IC50 (second compound 10 µM) was < 31.6 nM. The viability, T/C [1] was 80.1%, the viability, T/C [2] was 77.7% and the viability, T/C [3] was 97.1%. The viability, T/C [4] was 85.7%, the viability, T/C [5] was 104% and the viability, T/C [6] was 0.48%. It also gave a viability, T/C [7] of 46.5%, a viability, T/C [8] of 43% and a viability, T/C [9] of 34.7%. It also gave a viability, T/C [10] of 45.3%, a viability, T/C [11] of 37.9% and a viability, T/C [12] of 0.82%. The viability, T/C [13] was 39.3%, the viability, T/C [14] was 42.9% and the viability, T/C [15] was 41.9%. For the same compound, the viability, T/C [16] was 28.2%, the viability, T/C [17] was 28.2% and the viability, T/C [18] was 1.22%. For the same compound, the viability, T/C [19] was 32.5%, the viability, T/C [20] was 33.8% and the viability, T/C [21] was 30.9%. For the same compound, the viability, T/C [22] was 23.4%, the viability, T/C [23] was 21.8% and the viability, T/C [24] was 0.35%. It also gave a viability, T/C [25] of 27.8%, a viability, T/C [26] of 40.8% and a viability, T/C [27] of 25.6%. For the same compound, the viability, T/C [28] was 23.8%, the viability, T/C [29] was 19.6% and the viability, T/C [30] was 0.34%. For the same compound, the viability, T/C [31] was 26.5%, the viability, T/C [32] was 22.6% and the viability, T/C [33] was 27.6%. It also gave a viability, T/C [34] of 25.4%, a viability, T/C [35] of 18.5% and a viability, T/C [36] of 0.42%.
